Laboratory results as given in patent US20250082603A1, “OPHTHALMIC COMPOSITION CONTAINING RECOFLAVONE FOR THE TREATMENT OF DRY EYE DISEASE AND METHOD FOR PREPARING THE SAME” (GL PHARMTECH CORP., priority 2021, published 2025).
Read-outs that look alike come from different tables or passages of the source.

How the values were obtained:
[1] = Dissolved state of recoflavone in sodium hydroxide aqueous solution; type: physicochemical
Method: When recoflavone is not dissolved in purified water, in (S1) step, sodium hydroxide as an alkalizing agent is added in an amount of not less than 1.05 which is the ratio of molar concentration to that of recoflavone. Here, the ratio of molar concentration is expressed as a value by dividing the molar concentration of sodium hydroxide by the molar concentration of recoflavone contained in the ophthalmic composition.
Specifically, (S1) step is a process where sodium hydroxide is added to purified water to prepare an aqueous solution having a molar concentration of not more than 0.16 M or not less than 0.19 M, and then recoflavone is added. Recoflavone can be dissolved transparently through the above process.
The molar concentration of sodium hydroxide is calculated in the above dissolving process not in the final volume of the manufacturing process. […] Therefore an ophthalmic composition cannot be prepared efficiently. The corresponding contents will be described in details with reference to Tables 1, 2 and FIG. 9 below.

[2] = system: human keratoconjunctival epithelial cells; conditions: cited from earlier work
[3] = Drug distribution in each tissue of eye after 3% eye drop administered to rabbit eyes; type: in vivo; conditions: data not shown
Excerpt: (§1) It has a property with low solubility at low pH. As the pH increases, it is ionized and its solubility increases.

[4] = Solubility of recoflavone in water and its pH dependence; type: physicochemical
Excerpt: as §1
In general, an ophthalmic composition is preferably prepared in a transparent solution state in consideration of the feeling of use in eyes and the efficient absorption of the drug. […] Therefore, if recoflavone is not dissolved in purified water for an ophthalmic composition, a transparent solution may be prepared through (S1) step.

[5] = cited from earlier work
[6] = Cell permeability of dissolved recoflavone; type: in vitro ADME; conditions: high degree of ionization
Excerpt: as §1

[7] = human keratoconjunctival epithelial cells

COc1ccc(-c2cc(=O)c3c(OC)cc(OCC(=O)O)cc3o2)cc1OC [recoflavone monohydrate]
Dissolved state ([1]; molar concentration ratio 0.93, NaOH 0.196 M, recoflavone monohydrate 0.211 M): Not transparent
Dissolved state ([1]; molar concentration ratio 0.97, NaOH 0.196 M, recoflavone monohydrate 0.201 M): Not transparent
Dissolved state ([1]; molar concentration ratio 1.00, NaOH 0.196 M, recoflavone monohydrate 0.196 M): Not transparent
Dissolved state ([1]; molar concentration ratio 1.05, NaOH 0.194 M, recoflavone monohydrate 0.184 M): Transparent
Dissolved state ([1]; molar concentration ratio 1.06, NaOH 0.203 M, recoflavone monohydrate 0.192 M): Transparent

COc1ccc(-c2cc(=O)c3c(OC)cc(OCC(=O)O)cc3o2)cc1OC [recoflavone, 2-((2-(3,4-dimethoxyphenyl)-5-methoxy-4-oxo-4H-chromen-7-yl)oxy) acetic acid]
thickness of the mucin layer ([2]; 100 μM solution): significantly increased
MUC1, MUC4, MUC16 and MUC5AC by real-time PCR [2, 7]: tendency to increase significantly for four hours and then decreased rapidly
mucin proteins by Western blot analysis [2, 7]: MUC5AC only had a tendency to increase and the others did not
drug concentration in the cornea [3]: high immediately after the administration, but it was rapidly decreased over time
drug distribution in each tissue of eye with time [3]: rarely distributed in the tissues located inside the eye and mainly distributed in the surrounding tissues outside of the eye
solubility at low pH ([4]; low pH): low
solubility in water ([4]; water): practically insoluble
hygroscopicity ([5]; form of a hydrate): stable without hygroscopicity
hygroscopicity ([5]; form of an anhydride): has hygroscopicity
cell permeability [6]: poor
Dissolved state of recoflavone ([1]; NaOH aqueous solution out of the range of not more than 0.16 M or not less than 0.19 M, stirring for several hours): not dissolved transparently
Dissolved state of recoflavone ([1]; final volume 40 L, recoflavone 5% (w/v), NaOH 0.196 M, purified water 28,000 mL, ratio 1.05~1.06): Transparent
Dissolved state of recoflavone ([1]; final volume 70 L, recoflavone 5% (w/v), NaOH 0.196 M, purified water 49,000 mL, ratio 1.05~1.06): Transparent
Dissolved state of recoflavone ([1]; final volume 100 mL, recoflavone 3% (w/v), NaOH 0.086 M, purified water 90 mL, ratio 1.05): Transparent
Dissolved state of recoflavone ([1]; final volume 100 mL, recoflavone 3% (w/v), NaOH 0.097 M, purified water 80 mL): Transparent
Dissolved state of recoflavone ([1]; final volume 100 mL, recoflavone 3% (w/v), NaOH 0.111 M, purified water 70 mL): Transparent
Dissolved state of recoflavone ([1]; final volume 100 mL, recoflavone 5% (w/v), NaOH 0.137 M, purified water 100 mL, ratio 1.05): Transparent
Dissolved state of recoflavone ([1]; final volume 100 mL, recoflavone 5% (w/v), NaOH 0.152 M, purified water 90 mL): Transparent
Dissolved state of recoflavone ([1]; final volume 100 mL, recoflavone 5% (w/v), NaOH 0.196 M, purified water 70 mL): Transparent
Dissolved state of recoflavone ([1]; final volume 100 mL, recoflavone 5% (w/v), NaOH 0.392 M, purified water 70 mL): Transparent
Dissolved state of recoflavone ([1]; final volume 100 mL, recoflavone 6% (w/v), NaOH 0.204 M, purified water 80 mL): Transparent
Dissolved state of recoflavone ([1]; final volume 100 mL, recoflavone 6% (w/v), NaOH 0.233 M, purified water 70 mL): Transparent
Dissolved state of recoflavone ([1]; final volume 100 mL, recoflavone 6% (w/v), NaOH 0.466 M, purified water 70 mL): Transparent
Dissolved state of recoflavone ([1]; final volume 100 mL, recoflavone 7% (w/v), NaOH 0.195 M, purified water 100 mL, ratio 1.05): Transparent
Dissolved state of recoflavone ([1]; final volume 100 mL, recoflavone 7% (w/v), NaOH 0.279 M, purified water 70 mL): Transparent
Dissolved state of recoflavone ([1]; final volume 100 mL, recoflavone 7% (w/v), NaOH 0.558 M, purified water 70 mL): Transparent
